In patent publication US20030232013A1, “Therapeutic and diagnostic targeting of cancers cells with tumor homing peptides” (priority 2002, published 2003):
Where two headings read alike, the source gives them in different places. Bridge positions count the residues as written; N and C are the ends. Square brackets hold non-standard residues; d marks the D form. Peptide text beside a SMILES is read from it. * marks the point of attachment. DOTA = O=C(O)CN1CCN(CC(=O)O)CCN(CC(=O)*)CCN(CC(=O)O)CC1; Ahx = NCCCCCC(=O)O

Legend:
[1] = test system: CFPAC-1 (Human) pancreatic cancer cells; assay: In vitro competitive cell binding assay, CFPAC-1; conditions: competitive binding vs. ^125I-Tyr^5-6-Ahx-Phe^19-STh or ^125I-Tyr^5-Phe^19-STh
Procedure: (§1) In Vitro Competitive Cell Binding Assay. The IC50 values of both metallated and non-metallated STh conjugates were determined in human cancer cells by a competitive displacement cell binding assay using ^125I-STh (^125I-Tyr^5-Phe^19-STh or ^125I-Tyr^5-6-Ahx-Phe^19-STh). […] After the incubation, the reaction medium was aspirated and cells were washed three times with media. The radioactivity bound to the cells was counted in a Packard Riastar gamma counting system. The ^125I-STh bound to cells was plotted vs. increasing concentrations of STh conjugate to determine the respective IC50 values (Table 3). For statistical considerations, three separate in vitro cell binding experiments with each conjugate were performed in duplicate.

[2] = test system: MCF-7 (Human) breast cancer cells; assay: In vitro competitive cell binding assay, MCF-7; conditions: competitive binding vs. ^125I-Tyr^5-6-Ahx-Phe^19-STh or ^125I-Tyr^5-Phe^19-STh
Procedure: as §1

[3] = test system: A375 (Human) melanoma cells; assay: In vitro competitive cell binding assay, A375; conditions: competitive binding vs. ^125I-Tyr^5-6-Ahx-Phe^19-STh or ^125I-Tyr^5-Phe^19-STh
Procedure: as §1

[4] = test system: MB-231 (Human) breast cancer cells; assay: In vitro competitive cell binding assay, MB-231
Procedure: as §1

[5] = test system: PC-3 (Human) prostate cancer cells; assay: In vitro competitive cell binding assay, PC-3; conditions: competitive binding vs. ^125I-Tyr^5-6-Ahx-Phe^19-STh or ^125I-Tyr^5-Phe^19-STh
Procedure: as §1

[6] = test system: CAPAN-1 (Human) pancreatic cancer cells; assay: In vitro competitive cell binding assay, CAPAN-1; conditions: competitive binding vs. ^125I-Tyr^5-6-Ahx-Phe^19-STh or ^125I-Tyr^5-Phe^19-STh
Procedure: as §1

[7] = test system: T47D (Human) breast cancer cells; assay: In vitro competitive cell binding assay, T47D
Procedure: as §1

[8] = in vivo; cited from earlier work
[9] = test system: OVCAR-3 (Human) ovarian cancer cells; assay: In vitro competitive cell binding assay, OVCAR-3; conditions: competitive binding vs. ^125I-Tyr^5-6-Ahx-Phe^19-STh or ^125I-Tyr^5-Phe^19-STh
Procedure: as §1

[10] = test system: H69 (Human) lung cancer cells; assay: In vitro competitive cell binding assay, H69; conditions: competitive binding vs. ^125I-Tyr^5-6-Ahx-Phe^19-STh or ^125I-Tyr^5-Phe^19-STh
Procedure: as §1

[11] = test system: MB-468 (Human) breast cancer cells; assay: In vitro competitive cell binding assay, MB-468; conditions: competitive binding vs. ^125I-Tyr^5-6-Ahx-Phe^19-STh or ^125I-Tyr^5-Phe^19-STh
Procedure: as §1

[12] = test system: chronic myelogenous leukemia; conditions: previously untreated chronic myelogenous leukemia; cited from earlier work
Hodgkin's disease = conditions: cited from earlier work
[13] = intravenous injection; cited from earlier work
[14] = water; cited from earlier work
multiple myeloma = conditions: oral administration; cited from earlier work
[15] = humans, cited from earlier work
MB-231 cells = assay: Scatchard analysis, MB-231; assay type: binding, human
Procedure: (§2) Scatchard Analysis. Scatchard analysis was performed in human cancer cells by a receptor-binding assay using ^125I-STh and 6-Ahx-Phe^19-STh or Phe^19-STh. […] After the incubation, the reaction medium was aspirated and cells were washed three times with media. The radioactivity bound to the cells was counted in a Packard Riastar gamma counting system. The experiment was performed in duplicate and average values were used for the calculations. The total bound peptide (B, both radioactive and non-radioactive), was obtained by multiplying the fraction of bound labeled peptide with the total concentration of peptide (both radioactive and non-radioactive). The total free peptide (F, both radioactive and non-radioactive) was obtained by substracting the total bound peptide from the total concentration of peptide. The non-specific binding was neglected in the calculations as it was <3%. The ratio of concentration of total bound and total free peptide (B/F) was plotted vs. total bound peptide (B) to determine the Kd (−1/slope) and Bmax (X-intercept) values. The number of receptors per cell was calculated from the Bmax (Table 4).

T-47D cells = assay: Scatchard analysis, T-47D; assay type: binding, human
Procedure: as §2

[16] = competitive binding vs. ^125I-Tyr^5-6-Ahx-Phe^19-STh or ^125I-Tyr^5-Phe^19-STh, read-out: In vitro IC50, Breast MB-231 (Human)
[17] = competitive binding vs. ^125I-Tyr^5-6-Ahx-Phe^19-STh or ^125I-Tyr^5-Phe^19-STh, read-out: In vitro IC50, Breast T47D (Human)
[18] = at equilibrium, calculated using Bmax value

In the case of CC(C)C[C@@H]1NC(=O)[C@H](CCC(=O)O)NC(=O)[C@@H]2CSSC[C@@H]3NC(=O)[C@H](C)NC(=O)[C@@H]4CCCN4C(=O)[C@H](CC(N)=O)NC(=O)[C@H](CSSC[C@H](NC(=O)[C@H](Cc4ccc(O)cc4)NC(=O)[C@H](CC(N)=O)NC(=O)[C@H](CO)NC(=O)[C@H](CO)NC(=O)[C@H](CC(N)=O)NC(=O)CCCCCN)C(=O)N2)NC(=O)[C@H](CSSC[C@@H](C(=O)N[C@@H](Cc2ccccc2)C(=O)O)NC(=O)CNC(=O)[C@H]([C@@H](C)O)NC3=O)NC1=O [6-Ahx-Phe^19-STh] (H-[Ahx]NSSNYCCELCCNPACTGCF-OH; disulfide 7-12, 8-16, 11-19 (inferred); N-terminus assumed), the IC50 [1] is reported as 4.4 ± 1.5 nM, the IC50 [2] is reported as 4.6 ± 2.8 nM and the IC50 [3] is reported as 6.4 ± 2.9 nM. For the same compound, the IC50 [4, 16] was 5.2 ± 1.5 nM, the IC50 [5] was 3.1 nM and the IC50 [6] was 4.5 nM. It also gave an IC50 [7, 17] of 5.6 ± 0.9 nM.

With CC(C)C[C@@H]1NC(=O)[C@H](CCC(=O)O)NC(=O)[C@@H]2CSSC[C@@H]3NC(=O)[C@H](C)NC(=O)[C@@H]4CCCN4C(=O)[C@H](CC(N)=O)NC(=O)[C@H](CSSC[C@H](NC(=O)[C@H](Cc4ccc(O)cc4)NC(=O)[C@H](CC(N)=O)NC(=O)[C@H](CO)NC(=O)[C@H](CO)NC(=O)[C@H](CC(N)=O)NC(=O)CCCCCNC(=O)CN4CCN(CC(=O)O)CCN(CC(=O)O)CCN(CC(=O)O)CC4)C(=O)N2)NC(=O)[C@H](CSSC[C@@H](C(=O)N[C@@H](Cc2ccccc2)C(=O)O)NC(=O)CNC(=O)[C@H]([C@@H](C)O)NC3=O)NC1=O [DOTA-6-Ahx-Phe^19-STh] ({DOTA-Ahx}-NSSNYCCELCCNPACTGCF-OH; disulfide 6-11, 7-15, 10-18) the IC50 [1] was 2.8 nM, the IC50 [2] was 14.1 nM and the IC50 [3] was 1.5 nM. It also gave an IC50 [4, 16] of 3.9 nM, an IC50 [5] of 7 nM and an IC50 [7, 17] of 0.5 nM.

In the case of N.N.[Cl][Pt][Cl] [Cisplatin], the oral absorption [8] is given as “not absorbed orally”.

CC(C)C[C@@H]1NC(=O)[C@H](CCC(=O)O)NC(=O)[C@@H]2CSSC[C@@H]3NC(=O)[C@H](C)NC(=O)[C@@H]4CCCN4C(=O)[C@H](CC(N)=O)NC(=O)[C@H](CSSC[C@H](NC(=O)[C@H](Cc4ccc(O)cc4)NC(=O)[C@H](CC(N)=O)NC(=O)[C@H](CO)NC(=O)[C@H](CO)NC(=O)[C@@H](N)CC(N)=O)C(=O)N2)NC(=O)[C@H](CSSC[C@@H](C(=O)N[C@@H](Cc2ccccc2)C(=O)O)NC(=O)CNC(=O)[C@H]([C@@H](C)O)NC3=O)NC1=O [Phe^19-STh] (H-NSSNYCCELCCNPACTGCF-OH; disulfide 6-11, 7-15, 10-18) gave an IC50 ([4]; competitive binding vs ^125-Tyr-6-Ahx-Phe^19-STh, read-out: IC50, MB-231 (FIG. 5)) of 5.2 ± 1.3 nM, an IC50 [9] of 3.2 nM and an IC50 ([7]; competitive binding vs ^125-Tyr-6-Ahx-Phe^19-STh, read-out: IC50, T-47D (FIG. 5)) of 3 ± 1.7 nM. The IC50 [10] was 4.5 ± 1.7 nM and the IC50 [11] was 2.8 nM.

In the case of CS(=O)(=O)OCCCCOS(C)(=O)=O [Busulfan, 1,4-butanediol dimethanesulfonate], the “adults obtaining hematologic remission with regression or stabilization of organomegaly” value [12] is listed as “Approximately 90%”.

In the case of CC[C@]1(O)C[C@@H]2CN(CCc3c([nH]c4ccccc34)[C@@](C(=O)OC)(c3cc4c(cc3OC)N(C)[C@H]3[C@@](O)(C(=O)OC)[C@H](OC(C)=O)[C@]5(CC)C=CCN6CC[C@]43[C@@H]65)C2)C1 [vinblastine], the “cases with significant improvement” value (Hodgkin's disease) is given as 50 to 90%, the “half-life of disappearance from plasma after distribution” value [13] is given as ~20 h and the “half-life of disappearance from plasma after distribution (first given)” value [13] is given as “approximately 1 hours”.

For N[C@@H](Cc1ccc(N(CCCl)CCCl)cc1)C(=O)O [Melphalan, 4-[bis(2-chloroethyl)amino]-L-phenylalanine], the “solubility in water” value [14] is given as “insoluble in water” and the “patients with multiple myeloma showing a favorable response” value (multiple myeloma) is given as “about one third to one half”.

For CO[C@@]12[C@H](COC(N)=O)C3=C(C(=O)C(C)=C(N)C3=O)N1C[C@@H]1N[C@@H]12 [Mitomycin], the “time required to reduce the serum concentration by about 50%” value ([15]; 30 mg bolus injection) is listed as 17 min and the “dose excreted unchanged in the urine” value [15] is listed as “Approximately 10%”.

For ^125I-Tyr^5-6-Ahx-Phe^19-STh, the Kd (MB-231 cells; Scatchard plot) was 4 nM, the “No. of receptors per cell” value (MB-231 cells; [18]) was 112,786 and the Kd (T-47D cells; Scatchard plot) was 4.4 nM. For the same compound, the “No. of receptors per cell” value (T-47D cells; [18]) was 41,758.
